The assay relates to HIV-1 strain NL4-3. Description: Entry inhibition of laboratory-adapted HIV-1 strain NL4-3. As to conditions: Human immunodeficiency virus 1, NL43; NL4-3. In kind it is cell-based.

Each structure is given as a SMILES string.

With `COc1cnc(-c2csc(C(=O)NCCO)n2)c2[nH]cc(C(=O)C(=O)N3CCC(=C(C#N)c4ccccc4)CC3)c12` [BMS-818251], the EC50 was 0.019 ± 0.003 nM.
